Measurements taken from US7355051B2, “Piperdine-amino-benzimidazole derivatives as inhibitors of respiratory syncytial virus replication” (Tibotec Pharmaceuticals, priority 2003, dated 2008).
Where two headings read alike, the source gives them in different places.

Columns and labels:
[1] = tested on: Respiratory Syncytial Virus; experiment: microbe, parasite or virus in culture; format: cell-based; settings: for EC50: human respiratory syncytial virus, 168 h
From the text: The percent protection against cytopathology caused by viruses (antiviral activity or EC50) achieved by tested compounds and their cytotoxicity (CC50) are both calculated from dose-response curves. The selectivity of the antiviral effect is represented by the selectivity index (SI), calculated by dividing the CC50 (cytotoxic dose for 50% of the cells) by the EC50 (antiviral activity for 50% of the cells).
Automated tetrazolium-based […] assays were used for determination of EC50 and CC50 of test compounds. Flat-bottom, 96-well plastic microtiter trays were filled with 180 μl of Eagle's Basal Medium, supplemented with 5% FCS (0% for FLU) and 20 mM Hepes buffer. Subsequently, stock solutions (7.8× final test concentration) of compounds were added in 45 μl volumes to a series of triplicate wells so as to allow simultaneous evaluation of their effects on virus- and mock-infected cells. Five five-fold dilutions were made directly in the microtiter trays using a robot system. Untreated virus controls, and HeLa cell controls were included in each test. Approximately 100 TCID50 of Respiratory Syncytial Virus was added to two of the three rows in a volume of 50 μl. The same volume of medium was added to the third row to measure the cytotoxicity of the compounds at the same concentrations as those used to measure the antiviral activity. After two hours of incubation, a suspension (4×10^5 cells/ml) of HeLa cells was added to all wells in a volume of 50 μl. The cultures were incubated at 37° C. in a 5% CO2 atmosphere. Seven days after infection the cytotoxicity and the antiviral activity was examined spectrophotometrically. To each well of the microtiter tray, 25 μl of a solution of MTT (3-(4,5-dimethylthiazol-2-yl)-2,5-diphenyltetrazolium bromide) was added. The trays were further incubated at 37° C. for 2 hours, after which the medium was removed from each cup. Solubilization of the formazan crystals was achieved by adding 100 μl 2-propanol. Complete dissolution of the formazan crystals were obtained after the trays have been placed on a plate shaker for 10 min. Finally, the absorbances were read in an eight-channel computer-controlled photometer (Multiskan MCC, Flow Laboratories) at two wavelengths (540 and 690 nm). The absorbance measured at 690 nm was automatically subtracted from the absorbance at 540 nm, so as to eliminate the effects of non-specific absorption.

[2] = Table 3, pEC50 (−log of EC50 in molar units), RSV-infected HeLa cells, MTT read-out seven days after infection, read-out: Activity (converted)
[3] = Table 1, pEC50 (−log of EC50 in molar units), RSV-infected HeLa cells, MTT read-out seven days after infection, read-out: Activity (converted)

| Compound | melting point [°C] | EC50 [1, 2] [nM] | further results |
| --- | --- | --- | --- |
| Cc1ccc(O)c(Cn2c(NC3CCN(CCCS(N)(=O)=O)CC3)nc3c(C)cccc32)n1 [Compound 19, 3-{4-[1-(3-hydroxy-6-methyl-pyridin-2-ylmethyl)-4-methyl-1H-benzoimidazol-2-ylamino]-piperidin-1-yl}-propane-1-sulfonic acid amide] | 250 | 12.6 | – |
| Cc1cc(C)c2c(c1)nc(NC1CCN(CCO)CC1)n2Cc1nc(C)ccc1O [Compound 15, 2-{2-[1-(2-hydroxy-ethyl)-piperidin-4-ylamino]-5,7-dimethyl-benzoimidazol-1-ylmethyl}-6-methyl-pyridin-3-ol] | 143 | – | EC50 ([1]; Table 2, pEC50 (−log of EC50 in molar units), RSV-infected HeLa cells, MTT read-out seven days after infection, read-out: Activity (converted)): 398 nM |
| Cc1cc(C)c2nc(NC3CCN(CCO)CC3)n(Cc3nc(C)ccc3O)c2c1 [Compound 2, 2-{2-[1-(2-hydroxy-ethyl)-piperidin-4-ylamino]-4,6-dimethyl-benzoimidazol-1-ylmethyl}-6-methyl-pyridin-3-ol] | 177 | – | EC50 [1, 3]: 3.16 nM |
| Cc1cc(C)c2nc(NC3CCN(CCC(N)=O)CC3)n(Cc3nc(C)ccc3O)c2c1 | 212 | – | – |
| Cc1cc(C)c2nc(NC3CCN(CCCS(N)(=O)=O)CC3)n(Cc3nc(C)ccc3O)c2c1 [Compound 1, 3-{4-[1-(3-hydroxy-6-methyl-pyridin-2-ylmethyl)-4,6-dimethyl-1H-benzoimidazol-2-ylamino]-piperidin-1-yl}-propane-1-sulfonic acid amide] | 180 | – | EC50 [1, 3]: 2 nM |
| CCOC(=O)CCN1CCC(Nc2nc3c(C)cc(C)cc3n2Cc2nc(C)ccc2O)CC1 [Compound 10, 3-{4-[1-(3-Hydroxy-6-methyl-pyridin-2-ylmethyl)-4,6-dimethyl-1H-benzoimidazol-2-ylamino]-piperidin-1-yl}-propionic acid ethyl ester] | 172 | – | EC50 [1, 3]: 79.4 nM |
| Cc1ccc(O)c(Cn2c(NC3CCN(CCN4CCCC4)CC3)nc3c(C)cccc32)n1 [Compound 18, 6-Methyl-2-{4-methyl-2-[1-(2-pyrrolidin-1-yl-ethyl)-piperidin-4-ylamino]-benzoimidazol-1-ylmethyl}-pyridin-3-ol] | 225 | 10 | – |
| 6-methyl-2-[4-methyl-2-(1-methyl-piperidin-4-ylamino)-benzoimidazol-1-ylmethyl]-pyridin-3-ol [Compound 34] | – | – | Activity ([1]; Table 3, pEC50 (−log of EC50 in molar units), RSV-infected HeLa cells, MTT read-out seven days after infection): 6.8 |
| Cc1ccc(O)c(Cn2c(NC3CCN(CCOC(N)=O)CC3)nc3c(C)cccc32)n1 [Compound 37, Carbamic acid 2-{4-[1-(3-hydroxy-6-methyl-pyridin-2-ylmethyl)-4-methyl-1H-benzoimidazol-2-ylamino]-piperidin-1-yl}-ethyl ester] | 222 | 158 | – |
| Cc1ccc(O)c(Cn2c(NC3CCN(CCOC(=O)Cc4ccccc4)CC3)nc3c(C)cccc32)n1 [Compound 24, Phenyl-acetic acid 2-{4-[1-(3-hydroxy-6-methyl-pyridin-2-ylmethyl)-4-methyl-1H-benzoimidazol-2-ylamino]-piperidin-1-yl}-ethyl ester] | 207 | – | EC50 ([1]; HeLa, read-out: Activity): 31.6 nM |
| Cc1ccc(O)c(Cn2c(NC3CCN(CCC(N)=O)CC3)nc3c(C)cccc32)n1 [Compound 27, 3-{4-[1-(3-Hydroxy-6-methyl-pyridin-2-ylmethyl)-4-methyl-1H-benzoimidazol-2-ylamino]-piperidin-1-yl}-propionamide] | 258 | 50.1 | – |
| COc1ccc(OCC(O)CN2CCC(Nc3nc4c(C)cccc4n3Cc3nc(C)ccc3O)CC2)cc1 (stereo not drawn) [Compound 41, 2-(2-{1-[2-hydroxy-3-(4-methoxy-phenoxy)-propyl]-piperidin-4-ylamino}-4-methyl-benzoimidazol-1-ylmethyl)-6-methyl-pyridin-3-ol] | 227 | 316 | – |
| Cc1ccc(O)c(Cn2c(NC3CCN(CC(O)C(C)C)CC3)nc3c(C)cccc32)n1 (stereo not drawn) [Compound 35, 2-{2-[1-(2-hydroxy-3-methyl-butyl)-piperidin-4-ylamino]-4-methyl-benzoimidazol-1-ylmethyl}-6-methyl-pyridin-3-ol] | 230 | 158 | – |
| CCOC(=O)CCN1CCC(Nc2nc3c(C)cccc3n2Cc2nc(C)ccc2O)CC1 [Compound 32, 3-{4-[1-(3-Hydroxy-6-methyl-pyridin-2-ylmethyl)-4-methyl-1H-benzoimidazol-2-ylamino]-piperidin-1-yl}-propionic acid ethyl ester] | 226 | 158 | – |
| Cc1ccc(O)c(Cn2c(NC3CCN(CCC(=O)O)CC3)nc3c(C)cccc32)n1.Cl [Compound 33, 3-{4-[1-(3-hydroxy-6-methyl-pyridin-2-ylmethyl)-4-methyl-1H-benzoimidazol-2-ylamino]-piperidin-1-yl}-propionic acid hydrochloride salt] | 245 | 158 | – |
| Cc1cc(C)c2nc(NC3CCN(CCCO)CC3)n(Cc3nc(C)ccc3O)c2c1 [Compound 4, 2-{2-[1-(3-hydroxy-propyl)-piperidin-4-ylamino]-4,6-dimethyl-benzoimidazol-1-ylmethyl}-6-methyl-pyridin-3-ol] | 209 | – | EC50 [1, 3]: 7.94 nM |
